Test results taken from PubChem BioAssay AID256 (DTP/NCI, 2004).
Toxic doses and inconclusive results are not listed. The calls were made as follows: active = survival T/C of 150% or more; inactive = T/C below 125% in these data.

Tested on: CD2F1 mice, L1210 leukemia ip, survival T/C
Experiment: NCI In Vivo Anticancer Drug Screen. Data for tumor model L1210 Leukemia (intraperitoneal) in CD2F1 (CDF1) mice
Details: endpoint: mean survival time, higher = longer survival
In short: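 Activity against a transplanted murine tumor was judged by comparing the compound group with a vehicle group. The outcome in the treated animals was divided by that in the controls.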

[1] = dose: 100.0 mg/kg/injection, schedule: Q01DX009 (ip), vehicle: saline
[2] = dose: 200.0 mg/kg/injection, schedule: Q01DX009 (ip), vehicle: saline
[3] = dose: 400.0 mg/kg/injection, schedule: Q01DX009 (ip), vehicle: saline
[4] = dose: 100.0 mg/kg/injection, schedule: Q01DX009 (ip), vehicle: saline with Tween-80
[5] = dose: 200.0 mg/kg/injection, schedule: Q01DX009 (ip), vehicle: saline with Tween-80
[6] = dose: 400.0 mg/kg/injection, schedule: Q01DX009 (ip), vehicle: saline with Tween-80
[7] = dose: 100.0 mg/kg/injection, schedule: Q01DX001 (ip), vehicle: saline with Tween-80
[8] = dose: 200.0 mg/kg/injection, schedule: Q01DX001 (ip), vehicle: saline with Tween-80
[9] = dose: 100.0 mg/kg/injection, schedule: Q04DX003 (ip), vehicle: saline with Tween-80
[10] = dose: 200.0 mg/kg/injection, schedule: Q04DX003 (ip), vehicle: saline with Tween-80
[11] = dose: 400.0 mg/kg/injection, schedule: Q04DX003 (ip), vehicle: saline with Tween-80
[12] = dose: 100.0 mg/kg/injection, schedule: Q04DX003 (ip), vehicle: saline
[13] = dose: 200.0 mg/kg/injection, schedule: Q04DX003 (ip), vehicle: saline
[14] = dose: 400.0 mg/kg/injection, schedule: Q01DX001 (ip), vehicle: saline with Tween-80

Measured: T/C

Cc1ccccc1C(O)(c1ccccc1C)c1ccccc1C
inactive: dose: 100.0 mg/kg/injection, schedule: Q04DX003 (ip), vehicle: acetone 96 % of control | dose: 200.0 mg/kg/injection, schedule: Q04DX003 (ip), vehicle: acetone 98 % of control | dose: 400.0 mg/kg/injection, schedule: Q04DX003 (ip), vehicle: acetone 98 % of control

NC1=NC(CCc2ccccc2)N(c2ccc3ccccc3c2)C(N)=N1 (stereo unspecified)
inactive: dose: 4.7 mg/kg/injection, schedule: Q04DX003 (ip), vehicle: saline 104 % of control | dose: 9.4 mg/kg/injection, schedule: Q04DX003 (ip), vehicle: saline 100 % of control | dose: 18.8 mg/kg/injection, schedule: Q04DX003 (ip), vehicle: saline 100 % of control

C[C@]12CCC(=O)C=C1CC[C@H]1[C@@H]3CC[C@](O)(C(=O)CF)[C@@]3(C)C[C@H](O)[C@@]12F
inactive: dose: 50.0 mg/kg/injection, schedule: Q01DX001 (sc), vehicle: saline sonified 103 % of control | dose: 50.0 mg/kg/injection, schedule: Q04DX003 (sc), vehicle: Klucel (hydroxypropylcellulose) (HPC) 104 % of control | dose: 100.0 mg/kg/injection, schedule: Q01DX001 (sc), vehicle: saline sonified 101 % of control | dose: 100.0 mg/kg/injection, schedule: Q04DX003 (sc), vehicle: Klucel (hydroxypropylcellulose) (HPC) 102 % of control | dose: 200.0 mg/kg/injection, schedule: Q01DX001 (sc), vehicle: saline sonified 103 % of control | dose: 200.0 mg/kg/injection, schedule: Q04DX003 (sc), vehicle: Klucel (hydroxypropylcellulose) (HPC) 104 % of control

O=S(=O)(F)c1ccc2nc(-c3ccccc3)cc(Cl)c2c1
inactive: [1] 111 % of control | [2] 108 % of control | [3] 109 % of control

CCCCCCCCCCCCCCCCC1CCCC1C1CCCC1 (stereo unspecified)
inactive: dose: 100.0 mg/kg/injection, schedule: Q01DX001 (ip), vehicle: saline sonified 102 % of control | dose: 200.0 mg/kg/injection, schedule: Q01DX001 (ip), vehicle: saline sonified 101 % of control | dose: 400.0 mg/kg/injection, schedule: Q01DX001 (ip), vehicle: saline sonified 96 % of control

FC(F)(F)C(Cl)Br (stereo unspecified)
inactive: [4] 98 % of control | [1] 97 % of control | [5] 96 % of control | [2] 98 % of control | [6] 95 % of control | [3] 103 % of control

CCCCCC(C)C1=NC(C)(C)CC(C)O1 (stereo unspecified)
inactive: dose: 5.0 mg/kg/injection, schedule: Q01DX009 (ip), vehicle: saline 94 % of control | dose: 10.0 mg/kg/injection, schedule: Q01DX009 (ip), vehicle: saline 95 % of control | dose: 20.0 mg/kg/injection, schedule: Q01DX009 (ip), vehicle: saline 97 % of control | [7] 97 % of control | [8] 93 % of control

O=c1cn[nH]c2c(Br)cc(Br)cc12
inactive: [9] 103 % of control | [10] 97 % of control | [11] 97 % of control

CN(C)S(=O)(=O)c1ccccc1C(=O)O
inactive: dose: 100.0 mg/kg/injection, schedule: Q04DX003 (ip), vehicle: saline sonified 100 % of control | dose: 200.0 mg/kg/injection, schedule: Q04DX003 (ip), vehicle: saline sonified 100 % of control | dose: 400.0 mg/kg/injection, schedule: Q04DX003 (ip), vehicle: saline sonified 93 % of control

O=C1OCCN1S(=O)(=O)c1ccc(Cl)cc1
inactive: [4] 95 % of control | [9] 104 % of control | [5] 93 % of control | [10] 102 % of control | [6] 95 % of control | [11] 98 % of control

O=C(C/C(=N\N(C(=O)c1ccccc1)c1ccccc1)c1ccccc1)c1ccccc1
inactive: [9] 92 % of control | [10] 97 % of control | [11] 100 % of control

CC(=O)OC1CCCC(OC(C)=O)C1OC(C)=O (stereo unspecified)
inactive: [12] 107 % of control | [13] 96 % of control | dose: 400.0 mg/kg/injection, schedule: Q04DX003 (ip), vehicle: saline 101 % of control

CCCCCCCCCCCCCCCCCC[n+]1ccc(C(=O)c2ccccc2)cc1
inactive: dose: 9.38 mg/kg/injection, schedule: Q01DX001 (ip), vehicle: other 109 % of control | dose: 18.75 mg/kg/injection, schedule: Q01DX001 (ip), vehicle: other 110 % of control

FC1CC=C(S)CC1 (stereo unspecified)
inactive: dose: 5.0 mg/kg/injection, schedule: Q01DX001 (ip), vehicle: saline 100 % of control | dose: 10.0 mg/kg/injection, schedule: Q01DX001 (ip), vehicle: saline 106 % of control | dose: 20.0 mg/kg/injection, schedule: Q01DX001 (ip), vehicle: saline 103 % of control | dose: 40.0 mg/kg/injection, schedule: Q01DX001 (ip), vehicle: saline 100 % of control | dose: 80.0 mg/kg/injection, schedule: Q01DX001 (ip), vehicle: saline 102 % of control

CCC(=O)c1ccc(OCOc2ccc(C(=O)CC)cc2OC)c(OC)c1
inactive: dose: 100.0 mg/kg/injection, schedule: Q01DX001 (ip), vehicle: saline 94 % of control | dose: 200.0 mg/kg/injection, schedule: Q01DX001 (ip), vehicle: saline 96 % of control | dose: 400.0 mg/kg/injection, schedule: Q01DX001 (ip), vehicle: saline 91 % of control

CCN(CC)C(=O)N1CCN(c2ccccc2)CC1
inactive: [12] 98 % of control | [13] 93 % of control

Cc1ccc2nc(-c3ccc(N=Cc4ccccc4O)cc3)sc2c1
inactive: dose: 12.5 mg/kg/injection, schedule: Q01DX009 (ip), vehicle: olive oil, sesame oil, peanut oil 100 % of control | dose: 25.0 mg/kg/injection, schedule: Q01DX009 (ip), vehicle: olive oil, sesame oil, peanut oil 98 % of control | dose: 50.0 mg/kg/injection, schedule: Q01DX009 (ip), vehicle: olive oil, sesame oil, peanut oil 102 % of control | dose: 100.0 mg/kg/injection, schedule: Q01DX009 (ip), vehicle: olive oil, sesame oil, peanut oil 95 % of control | dose: 200.0 mg/kg/injection, schedule: Q01DX009 (ip), vehicle: olive oil, sesame oil, peanut oil 100 % of control | dose: 400.0 mg/kg/injection, schedule: Q01DX009 (ip), vehicle: olive oil, sesame oil, peanut oil 96 % of control

CC(=O)N(C)c1ccc(NC(=O)Nc2ccc(Cl)cc2C)cc1
inactive: dose: 50.0 mg/kg/injection, schedule: Q01DX009 (ip), vehicle: saline with Tween-80 91 % of control | [4] 88 % of control | [5] 91 % of control

O=C(O)Cc1ccc(Cl)cc1
inactive: dose: 75.0 mg/kg/injection, schedule: Q01DX009 (ip), vehicle: saline with Tween-80 96 % of control | dose: 150.0 mg/kg/injection, schedule: Q01DX009 (ip), vehicle: saline with Tween-80 102 % of control | dose: 300.0 mg/kg/injection, schedule: Q01DX009 (ip), vehicle: saline with Tween-80 88 % of control

CNCC(O)c1ccc(O)cc1 (stereo unspecified)
inactive: [1] 94 % of control | [2] 91 % of control

Cc1ccc(C2OC2C(=O)c2ccccc2)cc1 (stereo unspecified)
inactive: dose: 50.0 mg/kg/injection, schedule: Q04DX002 (ip), vehicle: saline with Tween-80 95 % of control | [7] 94 % of control | dose: 100.0 mg/kg/injection, schedule: Q04DX002 (ip), vehicle: saline with Tween-80 91 % of control | [8] 92 % of control | [14] 94 % of control

COC(=O)CC1(C(=O)OC)Nc2ccc(Br)cc2C(=O)O1 (stereo unspecified)
inactive: [7] 96 % of control | [8] 96 % of control | [14] 94 % of control
